This is an account of results in publication PMC6370756 (2019).

The test system of test [1] is SP-PGQ-3 (DNA, G4) GGGCTAATAGGGAGAGCAGGGACGGGG
Put plainly: ITC. To be noted: K+ (10 mM potassium phosphate); pH 7.2, 25 °C; two-site fit, high-affinity site; site 1 of 2.

Test [2] has as its system SP-PGQ-1 (DNA, G4) GGGCAACTTGGCTGGGGTCTAGTTCCACGGGACGGG
Kind of test: ITC. To be noted: K+ (10 mM potassium phosphate); pH 7.2, 25 °C; two-site fit, high-affinity site; site 1 of 2.

For the compound `C[n+]1ccc(-c2c3nc(c(-c4cc[n+](C)cc4)c4ccc([nH]4)c(-c4cc[n+](C)cc4)c4nc(c(-c5cc[n+](C)cc5)c5ccc2[nH]5)C=C4)C=C3)cc1`, the figures for the Ka in test [1] and in test [2] were 2.49e+07 M⁻¹ and 1.59e+06 M⁻¹, respectively.
